Structures can show the parent of a compound that is named as a salt. Marks after values point to notes of the source that are not given here.
How the values were obtained:
α1B-adrenoceptors = target: T1, α1B-adrenoceptors (Mus musculus, UniProt P97717); assay: Functional bioassay, isolated mouse spleen, noradrenaline contraction; assay type: biochemical; settings: noradrenaline as agonist
T1 construct: The spleen was removed from male mice; from tissue; host or cells: isolated mouse spleen
T1 sequence (P97717 1-514): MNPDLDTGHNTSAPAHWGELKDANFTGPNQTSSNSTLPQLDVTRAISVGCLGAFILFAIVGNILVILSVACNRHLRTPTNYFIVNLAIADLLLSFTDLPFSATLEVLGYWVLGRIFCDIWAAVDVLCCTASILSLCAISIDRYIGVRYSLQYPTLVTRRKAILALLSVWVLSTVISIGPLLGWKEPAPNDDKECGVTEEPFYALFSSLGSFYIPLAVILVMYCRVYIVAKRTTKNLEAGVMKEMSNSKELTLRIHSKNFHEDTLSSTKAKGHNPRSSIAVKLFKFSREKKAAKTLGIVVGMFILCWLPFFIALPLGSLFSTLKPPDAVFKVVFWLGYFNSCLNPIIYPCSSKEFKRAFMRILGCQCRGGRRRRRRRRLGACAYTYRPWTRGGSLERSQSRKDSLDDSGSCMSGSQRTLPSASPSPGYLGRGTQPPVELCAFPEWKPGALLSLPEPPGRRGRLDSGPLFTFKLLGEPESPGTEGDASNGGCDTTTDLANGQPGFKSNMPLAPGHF
Protocol: The influence on α1B-adrenoceptors was evaluated using the isolated mouse spleen. The spleen was removed from male mice right after killing the anesthetized animal by cervical dislocation. […] The initial optimal tissues tension was set at 1.0 g. Through the 100 min of equilibration tissues were stimulated with noradrenaline (0.1−10.0 μM) three times with washing out until the contractile response become constant. Two cumulative concentration-response curves to noradrenaline, at an interval of 60 min, were established on each tissue both in the presence and absence of antagonist. The incubation with antagonists went on for 30 min. The experiments were carried out in the constant presence of propranolol (1 μM) to block β-adrenoceptors, and minimize the involvement of these adrenoceptors in the response to noradrenaline.
Data are means ± S.E.M. of at least 4 separate experiments. To establish Hill slopes for the agonist concentration–response curves and calculate EC50 values, curves were fitted to all the data by non-linear regression. The EC50 value in the presence and absence of antagonists was used to ascertain the concentration ratio (CR). Schild analysis was performed.

normal ECG in rats = assay: The effect on normal electrocardiogram in rats; assay type: in vivo, rat; settings: anesthetized rats
Protocol: The experiment was carried out to exclude the influence of tested compounds on normal ECG. […] The influence on QRS complex, PQ interval, heart rate (RR), and QTc interval was determined.

[1] = system: adrenaline-induced arrhythmia in rats; assay: Therapeutic antiarrhythmic activity in adrenaline-induced arrhythmia; assay type: in vivo, rat; settings: i.v. at ED84 at the peak of adrenaline-induced arrhythmia (20 μg/kg)
Protocol: The ECG was recorded constantly for 5 min as well as in the 10th and 15th min of the experiment.

[2] = system: blood pressure in normotensive rats; assay: Influence on blood pressure in normotensive rats; assay type: in vivo, rat; set-up: Systolic pressure / Diastolic pressure: unit not given beside the values; settings: for Diastolic pressure / Systolic pressure: anesthetized normotensive rats
Protocol: The tested compounds were administered i.p. after 15 min of stabilization period. The compounds were administered at the dose 10 mg/kg.

[3] = i.p. at ED84, 0 min (initial values)
[4] = lowest hypotensive dose i.p., 5 min
[5] = lowest hypotensive dose i.p., 10 min
[6] = lowest hypotensive dose i.p., 20 min
[7] = lowest hypotensive dose i.p., 30 min
[8] = lowest hypotensive dose i.p., 40 min
[9] = lowest hypotensive dose i.p., 50 min
[10] = lowest hypotensive dose i.p., 60 min
[11] = lowest hypotensive dose i.p., Control (before administration)
[12] = normotensive rats, lowest hypotensive dose i.p., period of significant effect

COc1ccccc1N1CCN(CCCOc2cc(C)ccc2Cl)CC1 [HBK-16, 1N-[3-(2-chloro-5-methylphenoxy)propyl]-4N-(2-methoxyphenyl)piperazine hydrochloride]
Schild slope ± S.E.M., α1B (α1B-adrenoceptors): 1.03 ± 0.12 | Kb (α1B-adrenoceptors; read-out: pA2 ± S.E.M., α1B (converted)): 6.17 nM | influence on ECG parameters (PQ interval, QRS complex, QTc interval) (normal ECG in rats; i.p. at ED84): did not influence PQ interval, QRS complex or QTc interval | reduction of heart rate (normal ECG in rats; i.p. at ED84, over the period of significant effect vs. initial values): 11−13% | Beats/min (ECG) (normal ECG in rats; [3]): 329.6 ± 9.8 Beats/min | PQ (ECG) (normal ECG in rats; [3]): 64.4 ± 1.1 ms | QRS (ECG) (normal ECG in rats; [3]): 21.7 ± 2.2 ms | QT (ECG) (normal ECG in rats; [3]): 51.4 ± 3.5 ms | QTc (ECG, Bazett) (normal ECG in rats; [3]): 120.5 ± 8.7 ms | Beats/min (ECG) (normal ECG in rats; i.p. at ED84, 5 min): 331.4 ± 12.5 Beats/min | PQ (ECG) (normal ECG in rats; i.p. at ED84, 5 min): 63.7 ± 1.1 ms | QRS (ECG) (normal ECG in rats; i.p. at ED84, 5 min): 21.7 ± 2.2 ms | QT (ECG) (normal ECG in rats; i.p. at ED84, 5 min): 51.2 ± 3.5 ms | QTc (ECG, Bazett) (normal ECG in rats; i.p. at ED84, 5 min): 120.7 ± 9.7 ms | Beats/min (ECG) (normal ECG in rats; i.p. at ED84, 10 min): 330.1 ± 12.4 Beats/min | PQ (ECG) (normal ECG in rats; i.p. at ED84, 10 min): 63.6 ± 0.9 ms | QRS (ECG) (normal ECG in rats; i.p. at ED84, 10 min): 21.7 ± 2.2 ms | QT (ECG) (normal ECG in rats; i.p. at ED84, 10 min): 51.2 ± 3.3 ms | QTc (ECG, Bazett) (normal ECG in rats; i.p. at ED84, 10 min): 120.2 ± 8.8 ms | Beats/min (ECG) (normal ECG in rats; i.p. at ED84, 15 min): 319.4 ± 10.3 Beats/min | PQ (ECG) (normal ECG in rats; i.p. at ED84, 15 min): 63.9 ± 1.1 ms | QRS (ECG) (normal ECG in rats; i.p. at ED84, 15 min): 21.7 ± 2.2 ms | QT (ECG) (normal ECG in rats; i.p. at ED84, 15 min): 50.1 ± 3.6 ms | QTc (ECG, Bazett) (normal ECG in rats; i.p. at ED84, 15 min): 115.8 ± 9.6 ms | Beats/min (ECG) (normal ECG in rats; i.p. at ED84, 20 min): 310.6 ± 9.8 Beats/min | PQ (ECG) (normal ECG in rats; i.p. at ED84, 20 min): 65.1 ± 1.2 ms | QRS (ECG) (normal ECG in rats; i.p. at ED84, 20 min): 21.7 ± 2.2 ms | QT (ECG) (normal ECG in rats; i.p. at ED84, 20 min): 51.4 ± 3.1 ms | QTc (ECG, Bazett) (normal ECG in rats; i.p. at ED84, 20 min): 117.3 ± 8.7 ms | Beats/min (ECG) (normal ECG in rats; i.p. at ED84, 30 min): 302.8 ± 11.0 Beats/min | PQ (ECG) (normal ECG in rats; i.p. at ED84, 30 min): 64.4 ± 1.1 ms | QRS (ECG) (normal ECG in rats; i.p. at ED84, 30 min): 21.7 ± 2.2 ms | QT (ECG) (normal ECG in rats; i.p. at ED84, 30 min): 52.7 ± 3.7 ms | QTc (ECG, Bazett) (normal ECG in rats; i.p. at ED84, 30 min): 119.0 ± 10.3 ms | Beats/min (ECG) (normal ECG in rats; i.p. at ED84, 40 min): 294.1 ± 12.2^a Beats/min | PQ (ECG) (normal ECG in rats; i.p. at ED84, 40 min): 65.9 ± 0.8 ms | QRS (ECG) (normal ECG in rats; i.p. at ED84, 40 min): 21.7 ± 2.2 ms | QT (ECG) (normal ECG in rats; i.p. at ED84, 40 min): 53.5 ± 2.8 ms | QTc (ECG, Bazett) (normal ECG in rats; i.p. at ED84, 40 min): 118.9 ± 8.4 ms | Beats/min (ECG) (normal ECG in rats; i.p. at ED84, 50 min): 291.4 ± 13.0^b Beats/min | PQ (ECG) (normal ECG in rats; i.p. at ED84, 50 min): 67.3 ± 1.6 ms | QRS (ECG) (normal ECG in rats; i.p. at ED84, 50 min): 22.0 ± 2.1 ms | QT (ECG) (normal ECG in rats; i.p. at ED84, 50 min): 54.7 ± 2.8 ms | QTc (ECG, Bazett) (normal ECG in rats; i.p. at ED84, 50 min): 121.1 ± 8.7 ms | Beats/min (ECG) (normal ECG in rats; i.p. at ED84, 60 min): 288.0 ± 13.8^b Beats/min | PQ (ECG) (normal ECG in rats; i.p. at ED84, 60 min): 68.2 ± 0.9 ms | QRS (ECG) (normal ECG in rats; i.p. at ED84, 60 min): 22.3 ± 2.0 ms | QT (ECG) (normal ECG in rats; i.p. at ED84, 60 min): 55.5 ± 2.4 ms | QTc (ECG, Bazett) (normal ECG in rats; i.p. at ED84, 60 min): 122.0 ± 7.7 ms | therapeutic antiarrhythmic activity (premature ventricular contractions) [1]: restored normal heart rhythm | Diastolic pressure [2, 4]: 95.0 ± 5.1 | Systolic pressure [2, 4]: 123.2 ± 3.3 | Diastolic pressure [2, 5]: 93.7 ± 5.1 | Systolic pressure [2, 5]: 121.2 ± 3.2 | Diastolic pressure [2, 6]: 91.3 ± 5.0^b | Systolic pressure [2, 6]: 114.8 ± 2.0^b | Diastolic pressure [2, 7]: 89.8 ± 5.2^a | Systolic pressure [2, 7]: 113.0 ± 2.4^c | Diastolic pressure [2, 8]: 87.7 ± 4.7^b | Systolic pressure [2, 8]: 110.3 ± 2.1^c | Diastolic pressure [2, 9]: 88.0 ± 4.3^c | Systolic pressure [2, 9]: 110.8 ± 2.0^b | Diastolic pressure [2, 10]: 87.7 ± 4.6^b | Systolic pressure [2, 10]: 110.7 ± 1.9^c | Diastolic pressure [2, 11]: 97.0 ± 4.3 | Systolic pressure [2, 11]: 124.7 ± 3.1 | lowest hypotensive dose ([2]; normotensive rats, lowest dose significantly lowering systolic and diastolic blood pressure): 0.1 mg/kg | reduction of diastolic blood pressure [2, 12]: 6−10% | reduction of systolic blood pressure [2, 12]: 8−11%
